Test results taken from patent US6635437B2, “Compounds, compositions and methods for generating chemiluminescence with phosphatase enzymes” (Lumigen, Inc., priority 1996, dated 2003).
One block for each compound: values may come before it.

Experiments:
[1] = test system: alkaline phosphatase (AP); experiment: Chemiluminescent detection of alkaline phosphatase with acridan phosphate and surfactant enhancer; type: biochemical; conditions: for Rel. (S/B normalized to the results obtained with no enhancer) / S/B (ratio of light intensities with AP and with no enzyme): acridan 1 with 10^−16 mol of AP, each surfactant at the concentration producing the greatest enhancement; for S/B (ratio of maximum light intensity to light intensity in the absence of enzyme): 0.33 mM 1, 0.01 mg/mL Enhancer A
acid phosphatase (AcP) [2] = experiment: Chemiluminescent detection of acid phosphatase and inhibition by tartrate; type: biochemical
Description: The quenching of emission was not due to a reduction of the pH since addition of 10 μL of citrate buffer caused only a 25% reduction in light intensity.

[3] = test system: alkaline phosphatase (AP); experiment: Chemiluminescent detection of alkaline phosphatase with acridan phosphate and cationic aromatic compound (CAC); type: biochemical; conditions: for S at 36 min (plateau intensity): 21 mM CAC in DMSO diluted 1:1000 into compound 5 in 0.1 M tris pH 8.8
AP-labeled antibody [4] = experiment: Western blot using nitrocellulose membrane; conditions: 0.33 mM 1, pH 9.6, 0.5 mg/mL Enhancer A
Description: A Western blot assay according to the procedures in Example 27 was performed using nitrocellulose membrane as the solid phase. Transferrin standards in the range of 5000-30 pg were used.

AP-labeled antibody [5] = experiment: Western blot assay of human transferrin using PVDF membrane
Excerpt: The chemiluminescent reaction of the present invention provides a particularly effective reagent for detection of AP conjugates on polyvinylidene difluoride (PVDF) membranes, nylon membranes and on nitrocellulose filters and membranes.
provides an intense luminescence which rises to a maximum level nearly instantly and maintains essentially constant intensity for at least 2 days. Detection on film and optimizing image intensity are thus particularly convenient.
Compositions of the present invention were used to detect and quantify a protein, human transferrin in a Western blot with an AP-labeled antibody on a polyvinylidene difluoride (PVDF) membrane. Dilutions of transferrin containing from 5000, 1000, 180, 30 and 5 pg, respectively, of protein were electrophoresed and transferred to PVDF membranes (Millipore, Bedford, Mass.). The transferrin bands were blocked with and then reacted sequentially with goat anti-human transferrin and rabbit anti-goat-AP conjugate. The membranes were soaked briefly with reagents comprising 0.2 M 221 buffer, pH 9.6 containing 0.88 mM MgCl2, 0.66 mM acridan phosphate 1 and 0.1 to 1 mg/mL of Enhancer A. The membranes were placed between transparent plastic sheets and exposed to X-ray film. […] The light produced using these compositions with varying amounts of the enhancer led to intense emission which could be imaged for at least 2 weeks. […]

acid phosphatase (AcP) [6] = experiment: Chemiluminescent detection of AcP by pH change; type: biochemical; conditions: 0.33 mM 1, tris pH 7.0, 0.1% BSA, 0.01% Enhancer A, 3 μL AcP, 8 min; 1 N NaOH injected, integrated 4 min
Description: An alternate way to detect the light emitted by reaction of AcP with 1 is to incubate a reagent composition containing 1 and enhancer with AcP at a first pH and then rapidly raise the pH by injecting a solution of a strong base to cause a burst of light emission. A reagent composition (100 μL) comprising 0.33 mM acridan phosphate 1 in 0.1 M tris buffer, pH 7.0, 0.1% BSA and 0.01% Enhancer A was reacted with 3 μL of AcP (Sigma AcP LIN-TROL, reconstituted to 2.0 mL, 83 U/L) for 8 min at ambient temperature in a test tube. A solution of 1 N NaOH (50 μL) was injected and light intensity integrated for 4 min.

[7] = 4×10^−16 mol AP, room temperature

effect of addition of AP on chemiluminescence ([1]; composition as Example 14 with the ester in place of 1): no effect
Compound: CN1c2ccccc2C(C(=O)Oc2ccccc2)c2ccccc21 [phenyl 10-methylacridan-9-carboxylate, reference compound]

Compound: bovine serum albumin: the protein bovine serum albumin, added to the detection reagent
effect on duration of light emission (acid phosphatase (AcP) [2]; added to the detection reagent at 0.1%): prolonged the duration of light emission significantly

Compound: 9-(2′,2′,2′-Trifluoroethylthiophosphoryloxymethylidene)-10-methylacridan, disodium salt [Compound 11]
S at 36 min (plateau intensity) [3, 7]: 9.3

effect on light emission (inhibition of enzyme activity) (acid phosphatase (AcP) [2]; addition of 5 μL of 0.04 M tartrate in citrate buffer (0.09 M, pH 4.8)): complete extinction of light emission
Compound: O=C(O)C(O)C(O)C(=O)O (stereo not shown) [tartrate, reference compound]

Compound: CCCCCCCC[N+](CCCCCCCC)(CCCCCCCC)Cc1ccc(C[N+](CCCC)(CCCC)CCCC)cc1.[Cl-].[Cl-] [Surfactant J, 1-trioctylammoniumnmethyl-4-tributylammoniummethylbenzene dichloride]
Rel. (S/B normalized to the results obtained with no enhancer) [1]: 1.2
S/B (ratio of light intensities with AP and with no enzyme) [1]: 17

Compound: (E,Z)-9-(Phenoxy)phosphoryloxymethylidene)-12-methylbenz[c]acridan, disodium salt [Compound 6]
S at 36 min (plateau intensity) [3, 7]: 72.3

Compound: 9-(3,5-Dimethylphenoxy)phohosphoryloxymethylidene)-10-methylacridan. disodium salt [Compound 2]
S at 36 min (plateau intensity) [3, 7]: 45.3

rise to peak signal versus control without SDS ([3]; SDS 10 mg/mL to 10 μg/mL, 0.66 mM 5, tris pH 8.8, 4×10^−16 mol AP, room temperature): faster rise to peak signal
Rel. (S/B normalized to the results obtained with no enhancer) [1]: 1.9
S/B (ratio of light intensities with AP and with no enzyme) [1]: 26
Compound: CCCCCCCCCCCCOS(=O)(=O)[O-].[Na+] [Surfactant H, sodium dodecyl sulfate]

Compound: 9-(2,6-Dimethylphenylthiophosphoryloxymethylidene)-10-methylacridan. disodium salt [Compound 9]
S at 36 min (plateau intensity) [3, 7]: 781

Compound: 9-(4-Fluorophenylthiophosphoryloxymethylidene)-10-methylacridan, disodium salt [Compound 7]
time to stable plateau of chemiluminescence intensity ([3]; 0.66 mM 7, 6.4 μM lucigenin, SDS, Na2SO3, TWEEN 20, tris pH 8.8, 8×10^−16 mol AP, room temperature): under 5 sec
S at 36 min (plateau intensity) [3, 7]: 61.6

Compound: CCCCCCCCCCCCCCCC[N+](C)(C)C.[Br-] [Surfactant I, cetyltrimethylammonium bromide]
Rel. (S/B normalized to the results obtained with no enhancer) [1]: 1.7
S/B (ratio of light intensities with AP and with no enzyme) [1]: 24

Compound: O=S([O-])[O-].[Na+].[Na+] [Na2SO3, sodium sulfite]
background signal (B) in the absence of AP versus control ([3]; Na2SO3 1.0 mg/mL to 1.0 μg/mL in Reagent A): lower background signal (B)
signal (S) versus control ([3]; Na2SO3 1.0 mg/mL to 1.0 μg/mL in Reagent A, 4×10^−16 mol AP, 3.5 min, room temperature): higher signal (S) than the control

Compound: C[n+]1c2ccccc2c(-c2c3ccccc3[n+](C)c3ccccc23)c2ccccc21.O=[N+]([O-])[O-].O=[N+]([O-])[O-] [CAC 1, N,N′-dimethylbiacridinium dinitrate, reference compound]
effect of lucigenin on light intensity ([3]; 6.4 μM lucigenin, 0.66 mM 5, 0.1 M tris pH 8.8, 8×10^−16 mol AP, 25° C.): much higher light intensity
signal (S) versus control without lucigenin ([3]; 6.4 mM to 6.4 nM lucigenin, 0.66 mM 5, tris pH 8.8, 4×10^−16 mol AP, 3.5 min, room temperature): higher signal (S) than the control

Compound: CN1c2ccccc2C(=C(Oc2ccccc2)OP(=O)([O-])[O-])c2ccccc21.[Na+].[Na+] [Compound 1, 9-(Phenoxyphosphoryloxymethylidene)-10-methylacridan, disodium salt]
S at 36 min (plateau intensity) [3, 7]: 2602
period over which detection could be performed (AP-labeled antibody [4]): over several hours
time course of chemiluminescence with AcP (acid phosphatase (AcP) [2]; 0.33 mM 1, 0.1 M tris pH 7, 0.01-0.1% Enhancer A, ambient temperature): reached maximum intensity nearly instantaneously and remained nearly constant for several minutes
time for which emission could be imaged (AP-labeled antibody [5]; 0.66 mM 1, 0.2 M 221 buffer pH 9.6, 0.1 to 1 mg/mL Enhancer A, PVDF): at least 2 weeks
time for which luminescence maintains essentially constant intensity (AP-labeled antibody [5]; antibody-AP conjugate on PVDF membrane): at least 2 days
time to maximum chemiluminescence intensity ([1]; 0.33 mM 1, 0.1 M tris pH 8.5, 0.88 mM Mg, 0.01 mg/mL Enhancer A, 10^−13 mol AP, 25° C.): 2 min
chemiluminescence on reaction with AP ([1]; composition of Example 14 (0.1 M tris pH 8.5, Enhancer A), AP, 25° C.): easily measurable blue chemiluminescence
S/B (ratio of maximum light intensity to light intensity in the absence of enzyme) ([1]; pH 7.0, tris, 8×10^−16 mol AP, 25° C.): 37
S/B (ratio of maximum light intensity to light intensity in the absence of enzyme) ([1]; pH 7.5, tris, 8×10^−16 mol AP, 25° C.): 144
S/B (ratio of maximum light intensity to light intensity in the absence of enzyme) ([1]; pH 8.0, tris, 8×10^−16 mol AP, 25° C.): 273
S/B (ratio of maximum light intensity to light intensity in the absence of enzyme) ([1]; pH 8.5, tris, 8×10^−16 mol AP, 25° C.): 280
S/B (ratio of maximum light intensity to light intensity in the absence of enzyme) ([1]; pH 9.0, 221 buffer, 8×10^−16 mol AP, 25° C.): 200
S/B (ratio of maximum light intensity to light intensity in the absence of enzyme) ([1]; pH 9.0, tris, 8×10^−16 mol AP, 25° C.): 195
S/B (ratio of maximum light intensity to light intensity in the absence of enzyme) ([1]; pH 9.5, 221 buffer, 8×10^−16 mol AP, 25° C.): 87
S/B (ratio of maximum light intensity to light intensity in the absence of enzyme) ([1]; pH 10.0, 221 buffer, 8×10^−16 mol AP, 25° C.): 13
S/B (ratio of maximum light intensity to light intensity in the absence of enzyme) ([1]; pH 10.5, 221 buffer, 8×10^−16 mol AP, 25° C.): 1.3
time to maximum chemiluminescence intensity ([1]; reagent composition of Example 14, 8×10^−16 mol AP, 25° C.): ca. 2 min
light intensity relative to reagent blank (acid phosphatase (AcP) [6]): three times the reagent blank

Compound: CCCCCCCC[P+](CCCCCCCC)(CCCCCCCC)Cc1ccc(C[P+](CCCC)(CCCC)CCCC)cc1.[Cl-].[Cl-] [Surfactant E, 1-trioctylphosphoniummethyl-4-tributylphosphonium-methylbenzene dichloride]
Rel. (S/B normalized to the results obtained with no enhancer) [1]: 11.6
S/B (ratio of light intensities with AP and with no enzyme) [1]: 162

Compound: 9-(Phenylthiophosphoryloxymethylidene)-2,7-difluoro-10-methylacridan, disodium salt [Compound 10]
S at 36 min (plateau intensity) [3, 7]: 21.1

Compound: polyoxyethylene(20)sorbitan monolaurate [Surfactant F]
effect on duration of chemiluminescence ([3]; TWEEN 20 1.0% to 0.001%, Reagent A with 21 μM lucigenin, lacking Na2SO3, 4×10^−16 mol AP): effective in extending the duration of chemiluminescence at or near maximum intensity
Rel. (S/B normalized to the results obtained with no enhancer) [1]: 8.6
S/B (ratio of light intensities with AP and with no enzyme) [1]: 120

Compound: 1-trioctylphosphoniummethyl-4-tributylammonium-methylbenzene, mixed bromide chloride salt [Surfactant G]
Rel. (S/B normalized to the results obtained with no enhancer) [1]: 4.5
S/B (ratio of light intensities with AP and with no enzyme) [1]: 63

Compound: (E,Z)-9-(Phenoxy)phosphoryloxymethylidene)-3-methoxy-10-methylacridan, disodium salt [Compound 3]
S at 36 min (plateau intensity) [3, 7]: 5963

Compound: (E, Z)-9-(2,6-Dimethylphenoxy)phosphoryloxymethylidene)-3-chloro-10-methylacridan, disodium salt [Compound 4]
S at 36 min (plateau intensity) [3, 7]: 4645

Compound: 9-(4-Methoxyphenylthiophosphoryloxymethylidene)-10-methylacridan, disodium salt [Compound 8]
S at 36 min (plateau intensity) [3, 7]: 19.1
